The DC50 is the concentration giving 50% degradation.

In the assay the target is T1, BTK (Homo sapiens, UniProt Q06187).
T1 construct: The GM01501.3 cell line endogenously expresses BTK with a HiBiT fusion tag via CRISPR knock-in at its C-terminal region; endogenous in cells; host or cells: GM01501.3 (GM01501 cells engineered by CRISPR knock-in of HiBiT at the BTK locus)
T1 sequence (Q06187 whole entry, the tested form may be a part): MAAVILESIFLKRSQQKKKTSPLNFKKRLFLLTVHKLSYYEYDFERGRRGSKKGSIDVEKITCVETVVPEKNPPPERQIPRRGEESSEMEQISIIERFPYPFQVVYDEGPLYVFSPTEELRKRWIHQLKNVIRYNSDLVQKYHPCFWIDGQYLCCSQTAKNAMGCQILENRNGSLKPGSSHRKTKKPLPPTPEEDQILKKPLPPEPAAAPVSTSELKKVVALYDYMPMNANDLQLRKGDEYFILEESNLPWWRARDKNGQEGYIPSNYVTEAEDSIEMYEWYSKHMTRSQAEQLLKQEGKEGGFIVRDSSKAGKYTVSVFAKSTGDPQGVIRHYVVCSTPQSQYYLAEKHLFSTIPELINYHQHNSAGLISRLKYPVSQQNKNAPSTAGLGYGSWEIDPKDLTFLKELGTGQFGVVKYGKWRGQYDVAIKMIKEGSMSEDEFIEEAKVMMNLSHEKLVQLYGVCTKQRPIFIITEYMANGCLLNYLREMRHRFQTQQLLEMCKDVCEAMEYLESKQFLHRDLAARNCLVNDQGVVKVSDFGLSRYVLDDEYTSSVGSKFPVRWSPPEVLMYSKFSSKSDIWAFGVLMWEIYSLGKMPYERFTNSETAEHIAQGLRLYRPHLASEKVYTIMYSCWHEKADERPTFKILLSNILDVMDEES
Briefly: BTK degradation assay using the HiBiT Method (Nano-Glo HiBiT Lytic Assay, GM01501.3 cells). It counts as cell-based. Particulars: HiBiT Degradation on GM01501.3 BTK @ 6 hours. The method in brief: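 CRISPR knock-in GM01501.3 cells expressing endogenous BTK with C-terminal HiBiT tag, treated 6 h at 37 °C with compounds, 11-point half-log titration from 10 μM top, duplicates. Remaining BTK quantified by Nano-Glo HiBiT lytic luminescence versus DMSO controls; DC50 reported.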
A general note: With HiBiT, luminescence reflects the tagged protein that the partner subunit can reach.
`Cc1cc(-c2ncnn3cc(-c4ccc(CN5CCC(c6ccc(NC7CCC(=O)NC7=O)cc6)CC5)cc4)cc23)ccc1CNC(=O)c1ccc(Cl)cc1` (centres unmarked) [Example 62, 4-chloro-N-[[4-[6-[4-[[4-[4-[(2,6-dioxo-3-piperidyl)amino]phenyl]-1-piperidyl]methyl]phenyl]pyrrolo[2,1-f][1,2,4]triazin-4-yl]-2-methyl-phenyl]methyl]benzamide]: the DC50 is under 100 nM. Then `Cc1cc(-c2ncnn3cc(OCCCN4CCC[C@@H](c5ccc6c(N7CCC(=O)NC7=O)nn(C)c6c5)C4)cc23)ccc1CNC(=O)c1noc(C(C)(C)C)n1` (single isomer, unassigned) [Example 292], with under 100 nM; and `CC(C)(C)c1nc(C(=O)NCc2ccc(-c3ncnn4cc(CCC(F)CN5CCC(c6ccc(NC7CCC(=O)NC7=O)cc6)CC5)cc34)cc2F)no1` (centres unmarked) [Example 170, 5-tert-butyl-N-[[4-[6-[4-[4-[4-[(2,6-dioxo-3-piperidyl)amino]phenyl]-1-piperidyl]-3-fluoro-butyl]pyrrolo[2,1-f][1,2,4]triazin-4-yl]-2-fluoro-phenyl]methyl]-1,2,4-oxadiazole-3-carboxamide], with under 100 nM; and `Cc1cc(-c2ncnn3cc(-c4ccc(CN5CCC(c6ccc(NC7CCC(=O)NC7=O)cc6)CC5)cc4)cc23)ccc1CNC(=O)c1ccc(C(C)(F)F)cc1` (centres unmarked) [Example 72, 4-(1,1-difluoroethyl)-N-[[4-[6-[4-[[4-[4-[(2,6-dioxo-3-piperidyl)amino]phenyl]-1-piperidyl]methyl]phenyl]pyrrolo[2,1-f][1,2,4]triazin-4-yl]-2-methyl-phenyl]methyl]benzamide], with under 100 nM.

In turn, `Cc1c(NC(=O)c2ccc(C(C)(C)O)cc2)cc(F)cc1-c1ncnn2cc(-c3ccc(CN4CCC(c5ccc(NC6CCC(=O)NC6=O)cc5)CC4)cc3)cc12` (centres unmarked) [Example 153, N-[3-[6-[4-[[4-[4-[(2,6-dioxo-3-piperidyl)amino]phenyl]-1-piperidyl]methyl]phenyl]pyrrolo[2,1-f][1,2,4]triazin-4-yl]-5-fluoro-2-methyl-phenyl]-4-(1-hydroxy-1-methyl-ethyl)benzamide] had a DC50 of under 100 nM. `Cc1cc(-c2ncnn3cc(-c4ccc(CN5CCC(c6ccc(NC7CCC(=O)NC7=O)cc6)CC5)cc4)cc23)ccc1CNC(=O)c1ccc(C(F)(F)F)cc1` (centres unmarked) [Example 73, N-[[4-[6-[4-[[4-[4-[(2,6-dioxo-3-piperidyl)amino]phenyl]-1-piperidyl]methyl]phenyl]pyrrolo[2,1-f][1,2,4]triazin-4-yl]-2-methyl-phenyl]methyl]-4-(trifluoromethyl)benzamide]: the half-maximal degradation concentration (DC50) is under 100 nM.

With `Cn1nc(N2CCC(=O)NC2=O)c2ccc(C3CCN(Cc4ccc(-c5cc6c(-c7ccc(CNC(=O)c8noc(C(C)(C)C)n8)c(F)c7)ncnn6c5)c(F)c4)CC3)cc21` [Example 242, 5-(tert-butyl)-N-(4-(6-(4-((4-(3-(2,4-dioxotetrahydropyrimidin-1(2H)-yl)-1-methyl-1H-indazol-6-yl)piperidin-1-yl)methyl)-2-fluorophenyl)pyrrolo[2,1-f][1,2,4]triazin-4-yl)-2-fluorobenzyl)-1,2,4-oxadiazole-3-carboxamide], the half-maximal degradation concentration (DC50) was under 100 nM. Then `CC(C)(C)c1nc(C(=O)NCc2ccc(-c3ncnn4cc(-c5ccc(CN6CCC(Cc7ccc(OC8CCC(=O)NC8=O)cc7)C6)cn5)cc34)cc2F)no1` (centres unmarked) [Example 237, 5-(tert-butyl)-N-(4-(6-(5-((3-(4-((2,6-dioxopiperidin-3-yl)oxy)benzyl)pyrrolidin-1-yl)methyl)pyridin-2-yl)pyrrolo[2,1-f][1,2,4]triazin-4-yl)-2-fluorobenzyl)-1,2,4-oxadiazole-3-carboxamide], with under 100 nM. As for `CC(C)(C)c1nc(C(=O)NCc2ccc(-c3ncnn4cc(-c5ccc(CN6CCC(c7ccc(NC8CCC(=O)NC8=O)cc7)CC6)cc5)cc34)cc2F)no1` (centres unmarked) [Example 44, 5-tert-butyl-N-[[4-[6-[4-[[4-[4-[(2,6-dioxo-3-piperidyl)amino]phenyl]-1-piperidyl]methyl]phenyl]pyrrolo[2,1-f][1,2,4]triazin-4-yl]-2-fluoro-phenyl]methyl]-1,2,4-oxadiazole-3-carboxamide], the DC50 was under 100 nM.

For `Cc1cc(-c2ncnn3cc(CCN4CCC(c5ccc6c(N7CCC(=O)NC7=O)nn(C)c6c5)CC4)cc23)ccc1CNC(=O)c1cnn(C(C)(C)C)c1` [Example 258, 1-(tert-butyl)-N-(4-(6-(2-(4-(3-(2,4-dioxotetrahydropyrimidin-1(2H)-yl)-1-methyl-1H-indazol-6-yl)piperidin-1-yl)ethyl)pyrrolo[2,1-f][1,2,4]triazin-4-yl)-2-methylbenzyl)-1H-pyrazole-4-carboxamide], the DC50 is under 100 nM.

For `CC(C)(C)c1nc(C(=O)NCc2ccc(-c3ncnn4cc(-c5ccc(CN6CC[C@H](c7ccc(NC8CCC(=O)NC8=O)cc7)CC67CC7)cc5)cc34)cc2F)no1` (stereo partly drawn) [Example 39, 5-tert-butyl-N-[[4-[6-[4-[[(7S)-7-[4-[(2,6-dioxo-3-piperidyl)amino]phenyl]-4-azaspiro[2.5]octan-4-yl]methyl]phenyl]pyrrolo[2,1-f][1,2,4]triazin-4-yl]-2-fluoro-phenyl]methyl]-1,2,4-oxadiazole-3-carboxamide], the DC50 fell in the range of 100 to 500 nM.

`Cc1cc(-c2ncnn3cc(-c4ccc(C(=O)NC5CCc6cc(NC7CCC(=O)NC7=O)ccc6C5)cc4)cc23)ccc1CNC(=O)c1noc(C(C)(C)C)n1` (centres unmarked) [Example 197, 5-(tert-butyl)-N-(4-(6-(4-((6-((2,6-dioxopiperidin-3-yl)amino)-1,2,3,4-tetrahydronaphthalen-2-yl)carbamoyl)phenyl)pyrrolo[2,1-f][1,2,4]triazin-4-yl)-2-methylbenzyl)-1,2,4-oxadiazole-3-carboxamide]: the 50% degradation concentration (DC50) is under 100 nM. The result for `Cc1cc(-c2ncnn3cc(-c4ccc(OCCN5CCC(c6ccc(CN7CCC(=O)NC7=O)cc6)CC5)cc4)cc23)ccc1CNC(=O)c1noc(C(C)(C)C)n1` [Example 106, 5-tert-butyl-N-[[4-[6-[4-[2-[4-[4-[(2,4-dioxohexahydropyrimidin-1-yl)methyl]phenyl]-1-piperidyl]ethoxy]phenyl]pyrrolo[2,1-f][1,2,4]triazin-4-yl]-2-methyl-phenyl]methyl]-1,2,4-oxadiazole-3-carboxamide] reads under 100 nM; that for `Cc1cc(-c2ncnn3cc(-c4ccc(CN5CCC(c6ccc(NC7CCC(=O)NC7=O)cc6)CC5)cc4)cc23)ccc1CNC(=O)c1cc(C(C)(C)C)on1` (centres unmarked) [Example 83, -tert-butyl-N-[[4-[6-[4-[[4-[4-[(2,6-dioxo-3-piperidyl)amino]phenyl]-1-piperidyl]methyl]phenyl]pyrrolo[2,1-f][1,2,4]triazin-4-yl]-2-methyl-phenyl]methyl]isoxazole-3-carboxamide], under 100 nM. The compound `Cc1cc(-c2ncnn3cc(-c4cccc(CN5CCC(c6ccc(NC7CCC(=O)NC7=O)cc6)CC5)c4)cc23)ccc1CNC(=O)c1noc(C(C)(C)C)n1` (centres unmarked) [Example 50, 5-tert-butyl-N-[[4-[6-[3-[[4-[4-[(2,6-dioxo-3-piperidyl)amino]phenyl]-1-piperidyl]methyl]phenyl]pyrrolo[2,1-f][1,2,4]triazin-4-yl]-2-methyl-phenyl]methyl]-1,2,4-oxadiazole-3-carboxamide] registered a half-maximal degradation concentration (DC50) of under 100 nM.

On to `Cc1cc(-c2ncnn3cc(-c4csc(CN5CCC(c6ccc(C7CCC(=O)NC7=O)cc6)CC5)n4)cc23)ccc1CNC(=O)c1noc(C(C)(C)C)n1` (centres unmarked) [Example 208, 5-(tert-butyl)-N-(4-(6-(2-((4-(4-(2,6-dioxopiperidin-3-yl)phenyl)piperidin-1-yl)methyl)thiazol-4-4-yl)pyrrolo[2,1-f][1,2,4]triazin-4-yl)-2-methylbenzyl)-1,2,4-oxadiazole-3-carboxamide], for which the 50% degradation concentration (DC50) was under 100 nM.

Consider `Cc1cc(-c2ncnn3cc(OCCN4CCC(c5ccc(NC6CCC(=O)NC6=O)cc5)CC4)cc23)ccc1CNC(=O)c1noc(C(C)(C)C)n1` (centres unmarked) [Example 288, 5-(tert-butyl)-N-(4-(6-(2-(4-(4-((2,6-dioxopiperidin-3-yl)amino)phenyl)piperidin-1-yl)ethoxy)pyrrolo[2,1-f][1,2,4]triazin-4-yl)-2-methylbenzyl)-1,2,4-oxadiazole-3-carboxamide], for which the DC50 is under 100 nM. Then `CC(C)(C)c1nc(C(=O)NCc2ccc(-c3ncnn4cc(-c5ccc(CN6CCCC(c7ccc(OC8CCC(=O)NC8=O)cc7)C6)cn5)cc34)cc2F)no1` (centres unmarked) [Example 236, 5-(tert-butyl)-N-(4-(6-(5-((3-(4-((2,6-dioxopiperidin-3-yl)oxy)phenyl)piperidin-1-yl)methyl)pyridin-2-yl)pyrrolo[2,1-f][1,2,4]triazin-4-yl)-2-fluorobenzyl)-1,2,4-oxadiazole-3-carboxamide], with under 100 nM; and `Cc1c(NC(=O)c2cc3c(s2)CCCC3)cc(F)cc1-c1ncnn2cc(-c3ccc(CN4CCC(c5ccc(NC6CCC(=O)NC6=O)cc5)CC4)cc3)cc12` (centres unmarked) [Example 152, N-(3-(6-(4-((4-(4-((2,6-dioxopiperidin-3-yl)amino)phenyl)piperidin-1-yl)methyl)phenyl)pyrrolo[2,1-f][1,2,4]triazin-4-yl)-5-fluoro-2-methylphenyl)-4,5,6,7-tetrahydrobenzo[b]thiophene-2-carboxamide], with under 100 nM; and `Cc1cc(-c2ncnn3cc(COCCN4CCC(c5ccc(NC6CCC(=O)NC6=O)cc5)CC4)cc23)ccc1CNC(=O)c1noc(C(C)(C)C)n1` (centres unmarked) [Example 143, 5-tert-butyl-N-[[4-[6-[2-[4-[4-[(2,6-dioxo-3-piperidyl)amino]phenyl]-1-piperidyl]ethoxymethyl]pyrrolo[2,1-f][1,2,4]triazin-4-yl]-2-methyl-phenyl]methyl]-1,2,4-oxadiazole-3-carboxamide], with under 100 nM.

(Values after patent publication US20240287076A1, “COMPOUNDS FOR TARGETING DEGRADATION OF BRUTON'S TYROSINE KINASE” (BIOGEN MA INC., priority 2021, published 2024).)
